In ChEMBL document CHEMBL1152855, “Regioselective synthesis of dispiro[1H-indene-2,3'-pyrrolidine-2',3''-[3H]indole]-1,2''(1''H)-diones of potential anti-tumor properties” (2009):

Key:
Format in all cases: functional
Conditions in all cases: route intraperitoneal
[1] = test system: Rattus norvegicus; experiment: Antiinflammatory activity against carrageenan-induced paw edema in Wister albino rat assessed as inhibition of edema at 50 mg/kg, ip administered 1 hr prior to carrageenan challenge measured after 2 hrs relative to control
[2] = test system: Rattus norvegicus; experiment: Antiinflammatory activity against carrageenan-induced paw edema in Wister albino rat assessed as inhibition of edema at 50 mg/kg, ip administered 1 hr prior to carrageenan challenge measured after 4 hrs relative to control
[3] = test system: Rattus norvegicus; experiment: Antiinflammatory activity against carrageenan-induced paw edema in Wister albino rat assessed as inhibition of edema at 50 mg/kg, ip administered 1 hr prior to carrageenan challenge measured after 4 hrs relative to indomethacin
[4] = test system: Rattus norvegicus; experiment: Antiinflammatory activity against carrageenan-induced paw edema in Wister albino rat assessed as inhibition of edema at 50 mg/kg, ip administered 1 hr prior to carrageenan challenge measured after 1 hr relative to control
[5] = test system: Rattus norvegicus; experiment: Antiinflammatory activity against carrageenan-induced paw edema in Wister albino rat assessed as inhibition of edema at 50 mg/kg, ip administered 1 hr prior to carrageenan challenge measured after 3 hrs relative to control
[6] = test system: Rattus norvegicus; experiment: Antiinflammatory activity against carrageenan-induced paw edema in Wister albino rat assessed as inhibition of edema at 10 mg/kg, ip administered 1 hr prior to carrageenan challenge measured after 4 hrs relative to control
[7] = test system: Rattus norvegicus; experiment: Antiinflammatory activity against carrageenan-induced paw edema in Wister albino rat assessed as inhibition of edema at 10 mg/kg, ip administered 1 hr prior to carrageenan challenge measured after 3 hrs relative to control
[8] = test system: Rattus norvegicus; experiment: Antiinflammatory activity against carrageenan-induced paw edema in Wister albino rat assessed as inhibition of edema at 10 mg/kg, ip administered 1 hr prior to carrageenan challenge measured after 1 hr relative to control
[9] = test system: Rattus norvegicus; experiment: Antiinflammatory activity against carrageenan-induced paw edema in Wister albino rat assessed as inhibition of edema at 10 mg/kg, ip administered 1 hr prior to carrageenan challenge measured after 2 hrs relative to control

| Compound | inhibition in vivo at 50 mg/kg [1] | inhibition in vivo at 50 mg/kg [2] | activity relative to indomethacin [3] | inhibition in vivo at 50 mg/kg [4] | inhibition in vivo at 50 mg/kg [5] | inhibition in vivo at 10 mg/kg [6] | inhibition in vivo at 10 mg/kg [7] | inhibition in vivo at 10 mg/kg [8] | inhibition in vivo at 10 mg/kg [9] |
| --- | --- | --- | --- | --- | --- | --- | --- | --- | --- |
| [3H]N1C(=O)[C@@]2(c3ccccc31)N(C)C[C@@H](c1ccc(C)cc1)[C@@]21Cc2ccccc2C1=O | 23.8% | 17.1% | 35% | 56.4% | 27.4% | – | – | – | – |
| [3H]C([3H])([3H])N1C(=O)[C@@]2(c3ccccc31)N(C)C[C@@H](c1ccc(C)cc1)[C@@]21Cc2ccccc2C1=O | 8% | 13.9% | 29% | 46.9% | 6.4% | – | – | – | – |
| [3H]N1C(=O)[C@@]2(c3ccccc31)N(C)C[C@@H](c1ccco1)[C@@]21Cc2ccccc2C1=O | 53.6% | 33.5% | 69% | 48.8% | 38.8% | – | – | – | – |
| [3H]C([3H])([3H])N1C(=O)[C@@]2(c3ccccc31)N(C)C[C@@H](c1ccco1)[C@@]21Cc2ccccc2C1=O | 33.1% | 8.2% | 17% | 50.1% | 17.5% | – | – | – | – |
| [3H]N1C(=O)[C@@]2(c3ccccc31)N(C)C[C@@H](c1ccccc1)[C@@]21Cc2ccccc2C1=O | 40% | 39.3% | 81% | 56% | 42.5% | – | – | – | – |
| [3H]N1C(=O)[C@@]2(c3ccccc31)N(C)C[C@@H](c1ccc(F)cc1)[C@@]21Cc2ccccc2C1=O | 21.2% | 21.8% | 45% | 40.6% | 21.1% | – | – | – | – |
| [3H]C([3H])([3H])N1C(=O)[C@@]2(c3ccccc31)N(C)C[C@@H](c1ccc(F)cc1)[C@@]21Cc2ccccc2C1=O | 24.6% | 25.5% | 53% | 52.9% | 26.9% | – | – | – | – |
| COc1ccc2c(c1)c(CC(=O)O)c(C)n2C(=O)c1ccc(Cl)cc1 [INDOMETHACIN] | – | – | – | – | – | 48.5% | 48.3% | 51% | 45.6% |
